Reference: paper PMC12096666, “Synthesis, in vitro and in silico studies of a novel chrysin-ferrocene Schiff base with potent anticancer activity via G1 arrest, caspase-dependent apoptosis and inhibition of topoisomerase II” (Journal of Enzyme Inhibition and Medicinal Chemistry, 2025)
Values joined by “and” are separate entries in the source; they are usually repeats but may differ in a detail not shown here. Equal entries are not always repeated.

Key:
EGFR = molecular target: T1, EGFR (Homo sapiens, UniProt P00533); assay: EGFR kinase assay; format: biochemical; conditions: mean ± SD of three experiments
T1 construct: purchased BPS Bioscience
T1 sequence (P00533 25-1210): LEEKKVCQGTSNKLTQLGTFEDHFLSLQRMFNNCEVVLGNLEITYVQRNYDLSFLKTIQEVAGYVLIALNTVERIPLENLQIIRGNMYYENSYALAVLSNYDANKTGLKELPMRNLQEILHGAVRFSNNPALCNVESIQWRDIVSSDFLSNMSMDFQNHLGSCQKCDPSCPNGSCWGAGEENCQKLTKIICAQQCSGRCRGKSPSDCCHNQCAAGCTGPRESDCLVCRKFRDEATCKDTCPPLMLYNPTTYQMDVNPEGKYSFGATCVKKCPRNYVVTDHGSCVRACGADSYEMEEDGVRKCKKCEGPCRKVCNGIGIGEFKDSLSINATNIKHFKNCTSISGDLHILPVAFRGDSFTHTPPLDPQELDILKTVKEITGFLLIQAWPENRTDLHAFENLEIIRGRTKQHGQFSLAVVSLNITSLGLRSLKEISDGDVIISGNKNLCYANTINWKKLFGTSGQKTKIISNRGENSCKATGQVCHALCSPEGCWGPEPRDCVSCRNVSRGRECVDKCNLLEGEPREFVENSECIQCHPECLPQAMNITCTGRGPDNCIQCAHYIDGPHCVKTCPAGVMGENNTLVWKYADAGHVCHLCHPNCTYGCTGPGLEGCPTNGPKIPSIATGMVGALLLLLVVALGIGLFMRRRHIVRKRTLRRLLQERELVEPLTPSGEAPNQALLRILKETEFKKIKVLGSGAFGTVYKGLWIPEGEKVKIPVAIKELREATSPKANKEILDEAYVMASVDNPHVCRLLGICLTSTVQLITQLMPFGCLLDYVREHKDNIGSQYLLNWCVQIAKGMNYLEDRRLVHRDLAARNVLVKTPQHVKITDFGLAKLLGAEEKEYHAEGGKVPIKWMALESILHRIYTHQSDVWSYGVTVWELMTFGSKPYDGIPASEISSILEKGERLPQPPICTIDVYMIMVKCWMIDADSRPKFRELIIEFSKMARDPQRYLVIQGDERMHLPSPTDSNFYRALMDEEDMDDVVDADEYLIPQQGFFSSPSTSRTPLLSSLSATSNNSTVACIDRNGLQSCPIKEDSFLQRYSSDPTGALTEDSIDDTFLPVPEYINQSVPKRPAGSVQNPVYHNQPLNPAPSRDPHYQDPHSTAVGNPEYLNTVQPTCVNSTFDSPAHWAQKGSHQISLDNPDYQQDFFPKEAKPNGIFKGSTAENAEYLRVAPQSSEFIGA
Procedure: (§1) CDK2 kinase assay was performed using the CDK2 kinase assay kit (BPS Bioscience, USA) as previously described. The EGFR kinase assay was performed in 96-well plates coated with PGT (poly l-glutamic acid l-tyrosine, Sigma Aldrich, USA) using the EGFR kinase assay kit (BPS Bioscience, USA) and was conducted as previously described. The VEGFR-2 kinase assay was carried out in 96-well streptavidin coated plate using recombinant human VEGFR-2/KDR ELISA kit as previously described. The tropomyosin receptor kinases (TRK) inhibition assay was performed using TrkA assay kit (BPS Bioscience, USA) as per the manufacturer’s instructions. Topoisomerase II assay was performed using the human topoisomerase II relaxation assay kit (Inspiralis, UK) which involved relaxing supercoiled pBR322 DNA substrate by the enzyme. The relaxation assay was conducted as per the manufacturer’s instructions and as previously reported.

tubulin = molecular target: T2, tubulin (Sus scrofa, UniProt P02550+P02554); assay: Tubulin polymerisation assay; format: biochemical; conditions: fluorescence, tubulin from porcine brain; mean ± SD of three experiments
T2 construct: polymerisation of tubulin, isolated from porcine brain tissue; purchased Cytoskeleton, Inc; host or cells: porcine brain tissue
T2 sequence (P02554 whole entry): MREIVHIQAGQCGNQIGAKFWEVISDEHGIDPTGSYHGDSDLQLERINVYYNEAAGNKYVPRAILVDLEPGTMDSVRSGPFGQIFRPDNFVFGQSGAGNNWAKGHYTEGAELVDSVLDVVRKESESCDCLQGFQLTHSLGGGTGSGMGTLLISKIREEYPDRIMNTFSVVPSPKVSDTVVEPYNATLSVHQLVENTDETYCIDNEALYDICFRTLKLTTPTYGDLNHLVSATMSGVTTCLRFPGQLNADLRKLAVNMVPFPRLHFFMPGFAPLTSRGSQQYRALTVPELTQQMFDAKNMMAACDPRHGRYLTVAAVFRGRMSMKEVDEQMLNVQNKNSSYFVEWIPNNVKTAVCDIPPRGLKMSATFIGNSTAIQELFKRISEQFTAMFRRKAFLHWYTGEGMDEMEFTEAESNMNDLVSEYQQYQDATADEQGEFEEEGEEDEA
T2 sequence (P02550 whole entry): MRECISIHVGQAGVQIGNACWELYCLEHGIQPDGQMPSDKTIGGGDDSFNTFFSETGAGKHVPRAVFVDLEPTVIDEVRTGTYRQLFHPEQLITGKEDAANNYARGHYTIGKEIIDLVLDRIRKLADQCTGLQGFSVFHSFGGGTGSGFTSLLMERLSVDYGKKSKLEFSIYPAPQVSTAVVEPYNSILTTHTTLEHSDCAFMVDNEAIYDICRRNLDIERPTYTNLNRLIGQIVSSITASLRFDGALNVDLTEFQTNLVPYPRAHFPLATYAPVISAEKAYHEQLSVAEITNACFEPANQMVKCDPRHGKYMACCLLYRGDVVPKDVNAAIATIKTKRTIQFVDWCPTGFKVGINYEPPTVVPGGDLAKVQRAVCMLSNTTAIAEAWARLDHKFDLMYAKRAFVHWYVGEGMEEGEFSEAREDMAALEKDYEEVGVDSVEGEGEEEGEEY
Procedure: The assay was performed using the tubulin polymerisation assay kit (Cytoskeleton, Inc, USA) as per the manufacturer’s instructions and as previously reported. […] Polymerisation dose-response curves were obtained by measuring changes in fluorescence intensity at each compound concentration. Fluorescence was measured at an excitation of 360 nm and emission of 450 nm using a Tecan-spark reader.
A tubulin polymerisation assay was used in order to assess the potential of CFSB as a tubulin polymerisation inhibitor. The assay involved observing the polymerisation of tubulin, isolated from porcine brain tissue, in the presence of CFSB. Changes in polymerisation were monitored via changes in fluorescence intensity.

human topoisomerase II = assay: Human topoisomerase II relaxation assay (pBR322); format: biochemical; conditions: relaxation of supercoiled pBR322 DNA; mean ± SD of three experiments
Procedure: as §1
The potential inhibition of topoisomerase II by CFSB was evaluated using human topoisomerase II assay. This assay involves measuring the ability of topoisomerase II enzyme to relax supercoiled DNA (pBR322)[68].

VEGFR = molecular target: T3, VEGFR (Homo sapiens, UniProt P35968); assay: VEGFR-2 kinase assay; format: biochemical; conditions: mean ± SD of three experiments
T3 construct: purchased
T3 sequence (P35968 20-1356): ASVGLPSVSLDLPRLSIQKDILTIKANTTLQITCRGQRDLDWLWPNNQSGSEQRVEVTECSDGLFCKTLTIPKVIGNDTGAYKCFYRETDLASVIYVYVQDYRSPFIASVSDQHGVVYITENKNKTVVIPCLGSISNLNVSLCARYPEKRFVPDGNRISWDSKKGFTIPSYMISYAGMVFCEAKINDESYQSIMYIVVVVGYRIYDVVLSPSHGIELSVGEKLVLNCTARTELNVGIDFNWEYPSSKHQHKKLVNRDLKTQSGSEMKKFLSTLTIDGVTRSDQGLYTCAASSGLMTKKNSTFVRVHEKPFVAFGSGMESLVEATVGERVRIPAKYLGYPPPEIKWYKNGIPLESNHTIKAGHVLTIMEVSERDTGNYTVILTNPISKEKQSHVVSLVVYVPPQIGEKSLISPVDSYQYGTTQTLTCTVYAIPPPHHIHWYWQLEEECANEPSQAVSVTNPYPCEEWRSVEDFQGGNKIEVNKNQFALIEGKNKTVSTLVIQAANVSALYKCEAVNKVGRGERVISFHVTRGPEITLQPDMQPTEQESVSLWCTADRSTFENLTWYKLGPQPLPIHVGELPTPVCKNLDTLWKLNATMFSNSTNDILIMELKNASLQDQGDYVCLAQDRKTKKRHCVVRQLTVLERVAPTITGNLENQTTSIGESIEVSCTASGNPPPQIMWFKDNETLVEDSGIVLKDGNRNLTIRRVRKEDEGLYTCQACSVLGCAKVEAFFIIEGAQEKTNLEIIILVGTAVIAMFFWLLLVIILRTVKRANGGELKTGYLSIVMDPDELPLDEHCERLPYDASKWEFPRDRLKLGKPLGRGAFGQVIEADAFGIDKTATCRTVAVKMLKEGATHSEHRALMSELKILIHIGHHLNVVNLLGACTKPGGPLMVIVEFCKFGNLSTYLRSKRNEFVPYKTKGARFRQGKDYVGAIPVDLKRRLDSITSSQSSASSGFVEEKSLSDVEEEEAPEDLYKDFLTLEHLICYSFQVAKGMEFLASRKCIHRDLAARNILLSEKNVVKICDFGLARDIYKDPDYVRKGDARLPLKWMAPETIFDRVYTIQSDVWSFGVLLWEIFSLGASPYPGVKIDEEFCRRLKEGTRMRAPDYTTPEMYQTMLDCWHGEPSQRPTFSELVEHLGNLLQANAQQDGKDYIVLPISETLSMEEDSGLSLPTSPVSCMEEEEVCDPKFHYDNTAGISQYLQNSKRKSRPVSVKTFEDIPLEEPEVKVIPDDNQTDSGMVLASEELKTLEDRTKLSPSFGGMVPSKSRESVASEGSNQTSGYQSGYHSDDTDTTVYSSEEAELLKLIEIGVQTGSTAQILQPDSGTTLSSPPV
Procedure: as §1

TrkA = molecular target: T4, TrkA (Homo sapiens, UniProt P04629); assay: TrkA inhibition assay; format: biochemical; conditions: mean ± SD of three experiments
T4 construct: purchased BPS Bioscience
T4 sequence (P04629 33-796): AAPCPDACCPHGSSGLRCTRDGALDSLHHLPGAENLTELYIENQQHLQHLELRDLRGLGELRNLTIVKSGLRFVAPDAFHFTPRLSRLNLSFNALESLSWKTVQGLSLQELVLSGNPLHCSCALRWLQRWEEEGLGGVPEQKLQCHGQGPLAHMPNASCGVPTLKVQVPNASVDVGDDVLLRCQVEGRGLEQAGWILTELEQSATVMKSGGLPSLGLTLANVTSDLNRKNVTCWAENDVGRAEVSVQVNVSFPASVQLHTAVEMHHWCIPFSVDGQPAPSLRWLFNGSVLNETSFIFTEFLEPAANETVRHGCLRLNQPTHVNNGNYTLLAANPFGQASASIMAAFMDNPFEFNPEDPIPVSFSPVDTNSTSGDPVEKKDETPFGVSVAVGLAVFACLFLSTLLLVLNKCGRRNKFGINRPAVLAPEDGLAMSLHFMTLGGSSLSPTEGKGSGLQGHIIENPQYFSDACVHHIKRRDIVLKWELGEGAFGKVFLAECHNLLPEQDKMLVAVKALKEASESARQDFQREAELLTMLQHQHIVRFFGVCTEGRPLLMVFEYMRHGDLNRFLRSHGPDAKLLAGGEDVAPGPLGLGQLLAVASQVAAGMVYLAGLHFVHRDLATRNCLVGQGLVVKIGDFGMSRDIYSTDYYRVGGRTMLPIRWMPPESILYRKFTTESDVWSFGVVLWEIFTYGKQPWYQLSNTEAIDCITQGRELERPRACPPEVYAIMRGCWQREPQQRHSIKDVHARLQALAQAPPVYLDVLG
Procedure: as §1

CDK2 = molecular target: T5, CDK2 (Homo sapiens, UniProt P24941); assay: CDK2 kinase assay; format: biochemical; conditions: mean ± SD of three experiments
T5 construct: purchased BPS Bioscience
Procedure: as §1

MDA-MB-231 = conditions: triple negative breast cancer cell line; values as low as; cited from earlier work
HCT116 cells = assay: MTT cell viability assay, HCT116; format: cell-based; conditions: Homo sapiens, HCT-116, 72 h, mean ± SD of three experiments
Procedure: (§2) Liver cancer (HepG2), colon cancer (HCT116), lung cancer (A549), breast cancer (MCF7) and normal lung (MRC5) cells were obtained from ATCC (Rockville, USA). Cells were cultured in RPMI-1640 enriched with 10% foetal calf serum and 50 µg/ml gentamycin. They were incubated at 37 °C in a humidified environment containing 5% CO2 and passaged 2–3 times/week.
(§3) The MTT assay was conducted as previously reported. Cell lines were seeded at 5x10^4 cells/well and incubated for 24 h. CFSB was added in twelve concentrations, alongside vehicle controls and vinblastine sulphate as a positive control. After 72 h of incubation, cell viability was assessed using the MTT assay. Media was replaced, followed by the addition of MTT solution. DMSO was later added and optical density was measured at 590 nm using a microplate reader (TECAN, USA). IC50 values were calculated using Graphpad Prism (San Diego, USA). The experiment was repeated three times.

MCF7 cells = assay: MTT cell viability assay, MCF7; format: cell-based; conditions: Homo sapiens, 72 h, mean ± SD of three experiments
Procedure: as §2, §3

A549 cells = assay: MTT cell viability assay, A549; format: cell-based; conditions: Homo sapiens, 72 h, mean ± SD of three experiments
Procedure: The MTT assay was conducted as previously reported[20]. Cell lines were seeded at 5x10^4 cells/well and incubated for 24 h. […] After 72 h of incubation, cell viability was assessed using the MTT assay. Media was replaced, followed by the addition of MTT solution. DMSO was later added and optical density was measured at 590 nm using a microplate reader (TECAN, USA). IC50 values were calculated using Graphpad Prism (San Diego, USA). The experiment was repeated three times.

HepG2 cells = assay: MTT cell viability assay, HepG2; format: cell-based; conditions: Homo sapiens, 72 h, mean ± SD of three experiments
Procedure: as §2, §3

## Oc1cc(O)c2c(=N[C]34[CH]5[CH]6[CH]7[CH]3[Fe]6754389%10[CH]4[CH]3[CH]8[CH]9[CH]4%10)cc(-c3ccccc3)oc2c1 (stereo not drawn) [CFSB, cyclopenta-2,4-dien-1-yl(5-((5,7-dihydroxy-2-phenyl-4H-chromen-4-ylidene)amino)cyclopenta-2,4-dien-1-yl)iron]
EGFR
  IC50: > 100 µM
tubulin
  IC50: 76 µM and 76.4 µM
Human topoisomerase II
  IC50: 20 µM and 20.1 µM
VEGFR
  IC50: > 100 µM
TrkA
  IC50: > 100 µM
CDK2
  IC50: > 100 µM

## O=C(COc1cc(O)c2c(=O)cc(-c3ccccc3)oc2c1)N/N=C/c1ccc(O)cc1O [Chrysin-De-allyl-Pac-1]
MDA-MB-231
  IC50: ≥ 5.98 µM

## COc1cccc2c1C(=O)c1c(O)c3c(c(O)c1C2=O)C[C@@](O)(C(=O)CO)C[C@@H]3O[C@H]1C[C@H](N)[C@H](O)[C@H](C)O1 [Doxorubicin]
HCT116 cells
  IC50: 3.16 ± 0.38 µM

## CC[C@]1(O)C[C@@H]2CN(CCc3c([nH]c4ccccc34)[C@@](C(=O)OC)(c3cc4c(cc3OC)N(C)[C@H]3[C@@](O)(C(=O)OC)[C@H](OC(C)=O)[C@]5(CC)C=CCN6CC[C@]43[C@@H]65)C2)C1 [Vinblastine sulphate]
HCT116 cells
  IC50: 1.75 ± 0.19 µM
MCF7 cells
  IC50: 2.27 ± 0.25 µM
A549 cells
  IC50: 4.15 ± 0.31 µM
HepG2 cells
  IC50: 0.89 ± 0.1 µM
